Results as given in patent EP4624457A1, “I[…] DERIVATIVES, I[…] NEURODEGENERATIVE DISEASES” (Centre National de la Recherche Scientifique, priority 2024, dated 2025).
Like-named read-outs stand apart in the source and are kept apart here.

Experiments:
Assay in all cases: Cell viability / proliferation assay (CellTiter Glo luminescence, 72 h)
Format in all cases: cell-based
[1] = system: A2780 ovarian carcinoma cells
Description: (§1) • Figure 1 represents the chemical structure of ingrilimine according to compound (Illa) formula. • Figure 2 represents the cytotoxic activity of ingrilimine. A2780 ovarian and HT29 colorectal carcinoma cells were grown in RPMI 1640 supplemented with 10% fetal calf serum (FCS) and 1% glutamine. U87-MG glioblastoma cells were grown in Dulbecco minimal essential medium containing 4.5 g/L glucose, 10% FCS and 1% glutamine at 37 °C in a humidified atmosphere containing 5% CO2. For IC50 determination, the cells were seeded in 96-well plates (3 × 10^3 cells/well) containing 90 µL of growth medium. After 24 h of culture, the cells were treated with ingrilimine at 10 different final concentrations. Cell viability was determined by luminescence after 72 h incubation. (a) Effect of ingrilimine on A2780 ovarian carcinoma cells. (b) Effect of ingrilimine on U87-MG glioblastoma cells. (c) Effect of ingrilimine on U87-MG glioblastoma cells • Figure 3a-3f represent the mitochondrial dysfunction provoked by ingrilimine. HCT116 cells were treated with ingrilimine in the range of […] for 24h and 48h. Sector Q normal cells that accumulated the JC-1 dye (fluorescence emission 590 nm). […] (a) Non-treated cells incubated with the carrier (DMSO) for 24 h. (b) HCT116 cells incubated with […] ingrilimine for 24 h. (c) HCT116 cells incubated with 250 nM ingrilimine for 24 h. (d) Non-treated cells incubated with the carrier (DMSO) for 48 h. (e) HCT116 cells incubated with […] ingrilimine for 48 h. (f) HCT116 cells incubated with 250 nM ingrilimine for 48. Changes in fluorescence emission were recorded by flow cytometry using the JC-1 mithocondrial membrane potential-dependent fluorescent dye. NT = non-treated cells; IngX = ingrilimine. • Figure 4a-4f represents phosphatidylserine exposure provoked by ingrilimine. A2780 cancer cells were incubated with ingrilimine in the range of 10-500 nM before staining with FITC-Annexin V and propidium iodide. Quadrants D1 and D2 with dead or necrotic cells, quadrant D3 with normal cells and quadrant D4 with apoptotic cells following phosphatidylserine exposure. (a) Non-treated A2780 cells incubated with the carrier (DMSO) for 24h. (b) A2780 cells incubated with 10 nM ingrilimine for 24 h. (c) A2780 cells incubated with 250 nM ingrilimine for 24 h. (d) Non-treated A2780 cells incubated with the carrier (DMSO) for 48 h. (e) A2780 cells incubated with 10 nM ingrilimine for 48 h. (f) A2780 cells incubated with 250 nM ingrilimine for 48. […] exposure in A2780 cell was quantified by flow cytometry using FITC-Annexin V. Dead or necrotic cells were detected using the vital dye propridium iodide. NT = non-treated cells; IngX = ingrilimine. • Figure 5 represents the antagonistic activity of ingrilimine (named "IngX" in the figure) and portimine (named "Port A" in the figure) against nicotinic acetylcholine receptors recorded by two-electrodes voltage clamp electrophysiology on Xenopus laevis oocytes. Clamped Xenopus laevis oocytes having incorporated the muscle (α1)2βγδ nAChR subtype from Torpedo marmorata (filled squares), or expressing the neuronal α3β2 nAChR subtype from rat (filled triangles), or expressing the human neuronal α7 nAChR subtype (filled circles) were exposed to portimine (100 nM - 1 mM) for 45 seconds. […] A Xenopus laevis oocyte expressing the human α7 nAChR subtype was exposed to 100 µM acetylcholine triggering the immediate opening of the receptor's channel (black bold line) followed by the very-fast closure of the channel ([…]) that became insensitive to acetylcholine during the rest of the 5 seconds exposure (desensitization). When a Xenopus laevis oocyte expressing the human α7 nAChR subtype was exposed first to 10 nM ingrilimine for 45 seconds and then to a mixture (Mix) containing 10 nM ingrilimine and 100 µM acetylcholine, the receptor's channel was closed denoting a strong antagonistic activity of the tested toxin against the α7 nAChR subtype (dotted line). […]

[2] = system: U87-MG glioblastoma cells; conditions: for IC50: 72 h incubation, mean ± SEM from three distinct experiments
Description: as §1

[3] = system: HT29 colorectal carcinoma cells; conditions: for IC50: 72 h incubation, mean ± SEM from three distinct experiments
Description: as §1

| Structure (SMILES) | IC50 ([1]; Homo sapiens, A2780, 72 h incubation, mean ± SEM from three distinct experiments, read-out: IC50 ± SEM (nM) A2780) [nM] | IC50 ([1]; Homo sapiens, A2780, HT29 and U87-MG together, read-out: IC50 values, range over the three cancer cell lines tested) [nM] | times less potent than portimine-A to kill the A2780 ovarian cancer cells ([1]; ratio of IC50) [times] | IC50 ([2]; Homo sapiens, U-87 MG) [nM] | cytotoxic activity, times less potent compared to portimine-A ([2]; U87-MG, ratio of IC50) [times] | cytotoxic activity, times less potent compared to portimine-A ([3]; HT29, ratio of IC50) [times] | IC50 ([3]; Homo sapiens, HT-29) [nM] | IC50 ([1]; 72 h incubation, mean ± SEM from three distinct experiments, read-out: IC50 ± SEM (nM) A2780) [nM] | IC50 [2] [nM] | IC50 [3] [nM] |
| --- | --- | --- | --- | --- | --- | --- | --- | --- | --- | --- |
| C=CC1=C[C@@H]2C[C@@H](O)[C@@H](O)/C(C)=C/C/C(C)=C/CCC3=NCCC[C@]32CC1 [Ingrilimine, ingrilimine] | 10.6 ± 0.2 | 10 to 45 | 13 | 44.2 ± 0.3 | 5 | 5 | 34.3 ± 1.1 |  |  |  |
| C=CC1=C[C@@H]2[C@@H]3O[C@]4(CC[C@H](O4)[C@@H](C)C[C@@H](O)C3=O)C[C@H](O)C3=NCC[C@@]32CC1 [Portimine-A] |  |  |  |  |  |  |  | 0.77 ± 0.1 | 8.1 ± 7.8 | 6.4 ± 0.1 |
